We go through one compound from patent publication US7517891B2, “Camptothecin derivatives and improved synthetic methods” (Glyconix Corporation, priority 2005, dated 2009).

Molecules are shown by their SMILES.

Turning to `CC[C@@]1(OC(=O)CCCBr)C(=O)OCc2c1cc1n(c2=O)Cc2c-1nc1ccccc1c2CO`, the melting point is 172 to 176 °C (dec.).

As a reminder, the melting point is the temperature, or range, at which the solid turns liquid.
